PubChem BioAssay (NCI)
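Values below derive from 48-hour exposures of cells grown in 96-well plates, with endpoints linearly interpolated between the two concentrations bracketing the appropriate inhibition level. TGI denotes the concentration required for complete inhibition of growth.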

tested on: NCI-H226 lung; assay: NCI anticancer screen, dose series, 48 h

Structure (SMILES) | TGI [µM]
COC(=O)C(Cc1ccc2c(c1)CCCC2)Cc1cc2c(cc1C(O)OC)CCC2 (centres undefined) | > 100
S=C1N=C2C(=N1)n1c3c(c4ccccc41)CCCC23 (centres undefined) | > 100

tested on: NCI-H23 lung; assay: NCI anticancer screen, dose series, 48 h

Structure (SMILES) | TGI [µM]
C/C=C/[C@@H](C(=O)OC)N1C(=O)c2ccccc2[C@H]1O | > 100
COC(=O)C(Cc1ccc2c(c1)CCCC2)Cc1cc2c(cc1C(O)OC)CCC2 (centres undefined) | > 100
S=C1N=C2C(=N1)n1c3c(c4ccccc41)CCCC23 (centres undefined) | > 100

tested on: NCI-H460 lung; assay: NCI anticancer screen, dose series, 48 h

Structure (SMILES) | TGI [µM]
C/C=C/[C@@H](C(=O)OC)N1C(=O)c2ccccc2[C@H]1O | > 100
COC(=O)C(Cc1ccc2c(c1)CCCC2)Cc1cc2c(cc1C(O)OC)CCC2 (centres undefined) | > 100
S=C1N=C2C(=N1)n1c3c(c4ccccc41)CCCC23 (centres undefined) | > 100

tested on: NCI-H522 lung; assay: NCI anticancer screen, dose series, 48 h

Structure (SMILES) | TGI [µM]
C/C=C/[C@@H](C(=O)OC)N1C(=O)c2ccccc2[C@H]1O | > 100
COC(=O)C(Cc1ccc2c(c1)CCCC2)Cc1cc2c(cc1C(O)OC)CCC2 (centres undefined) | > 100
S=C1N=C2C(=N1)n1c3c(c4ccccc41)CCCC23 (centres undefined) | 63.3

tested on: NCI/ADR-RES ovarian; assay: NCI anticancer screen, dose series, 48 h

Structure (SMILES) | TGI [µM]
C/C=C/[C@@H](C(=O)OC)N1C(=O)c2ccccc2[C@H]1O | > 100
COC(=O)C(Cc1ccc2c(c1)CCCC2)Cc1cc2c(cc1C(O)OC)CCC2 (centres undefined) | > 100
S=C1N=C2C(=N1)n1c3c(c4ccccc41)CCCC23 (centres undefined) | > 100

tested on: OVCAR-3 ovarian; assay: NCI anticancer screen, dose series, 48 h

Structure (SMILES) | TGI [µM]
C/C=C/[C@@H](C(=O)OC)N1C(=O)c2ccccc2[C@H]1O | > 100
COC(=O)C(Cc1ccc2c(c1)CCCC2)Cc1cc2c(cc1C(O)OC)CCC2 (centres undefined) | > 100
S=C1N=C2C(=N1)n1c3c(c4ccccc41)CCCC23 (centres undefined) | > 100

tested on: OVCAR-4 ovarian; assay: NCI anticancer screen, dose series, 48 h

Structure (SMILES) | TGI [µM]
C/C=C/[C@@H](C(=O)OC)N1C(=O)c2ccccc2[C@H]1O | > 100
COC(=O)C(Cc1ccc2c(c1)CCCC2)Cc1cc2c(cc1C(O)OC)CCC2 (centres undefined) | > 100
S=C1N=C2C(=N1)n1c3c(c4ccccc41)CCCC23 (centres undefined) | > 100

tested on: OVCAR-5 ovarian; assay: NCI anticancer screen, dose series, 48 h

Structure (SMILES) | TGI [µM]
C/C=C/[C@@H](C(=O)OC)N1C(=O)c2ccccc2[C@H]1O | > 100
COC(=O)C(Cc1ccc2c(c1)CCCC2)Cc1cc2c(cc1C(O)OC)CCC2 (centres undefined) | > 100
S=C1N=C2C(=N1)n1c3c(c4ccccc41)CCCC23 (centres undefined) | > 100

tested on: OVCAR-8 ovarian; assay: NCI anticancer screen, dose series, 48 h

Structure (SMILES) | TGI [µM]
C/C=C/[C@@H](C(=O)OC)N1C(=O)c2ccccc2[C@H]1O | > 100
COC(=O)C(Cc1ccc2c(c1)CCCC2)Cc1cc2c(cc1C(O)OC)CCC2 (centres undefined) | > 100
S=C1N=C2C(=N1)n1c3c(c4ccccc41)CCCC23 (centres undefined) | > 100

tested on: PC-3 prostate; assay: NCI anticancer screen, dose series, 48 h

Structure (SMILES) | TGI [µM]
C/C=C/[C@@H](C(=O)OC)N1C(=O)c2ccccc2[C@H]1O | > 100
COC(=O)C(Cc1ccc2c(c1)CCCC2)Cc1cc2c(cc1C(O)OC)CCC2 (centres undefined) | > 100
S=C1N=C2C(=N1)n1c3c(c4ccccc41)CCCC23 (centres undefined) | > 100

tested on: RPMI-8226 leukemia; assay: NCI anticancer screen, dose series, 48 h

Structure (SMILES) | TGI [µM]
C/C=C/[C@@H](C(=O)OC)N1C(=O)c2ccccc2[C@H]1O | > 100
COC(=O)C(Cc1ccc2c(c1)CCCC2)Cc1cc2c(cc1C(O)OC)CCC2 (centres undefined) | > 100
S=C1N=C2C(=N1)n1c3c(c4ccccc41)CCCC23 (centres undefined) | 97.5

tested on: RXF 393 renal; assay: NCI anticancer screen, dose series, 48 h

Structure (SMILES) | TGI [µM]
C/C=C/[C@@H](C(=O)OC)N1C(=O)c2ccccc2[C@H]1O | > 100
COC(=O)C(Cc1ccc2c(c1)CCCC2)Cc1cc2c(cc1C(O)OC)CCC2 (centres undefined) | 67.3
S=C1N=C2C(=N1)n1c3c(c4ccccc41)CCCC23 (centres undefined) | > 100

tested on: SF-268 CNS; assay: NCI anticancer screen, dose series, 48 h

Structure (SMILES) | TGI [µM]
C/C=C/[C@@H](C(=O)OC)N1C(=O)c2ccccc2[C@H]1O | > 100
COC(=O)C(Cc1ccc2c(c1)CCCC2)Cc1cc2c(cc1C(O)OC)CCC2 (centres undefined) | > 100
S=C1N=C2C(=N1)n1c3c(c4ccccc41)CCCC23 (centres undefined) | > 100

tested on: SF-295 CNS; assay: NCI anticancer screen, dose series, 48 h

Structure (SMILES) | TGI [µM]
C/C=C/[C@@H](C(=O)OC)N1C(=O)c2ccccc2[C@H]1O | > 100
COC(=O)C(Cc1ccc2c(c1)CCCC2)Cc1cc2c(cc1C(O)OC)CCC2 (centres undefined) | > 100
S=C1N=C2C(=N1)n1c3c(c4ccccc41)CCCC23 (centres undefined) | > 100

tested on: SF-539 CNS; assay: NCI anticancer screen, dose series, 48 h

Structure (SMILES) | TGI [µM]
C/C=C/[C@@H](C(=O)OC)N1C(=O)c2ccccc2[C@H]1O | > 100
COC(=O)C(Cc1ccc2c(c1)CCCC2)Cc1cc2c(cc1C(O)OC)CCC2 (centres undefined) | > 100
S=C1N=C2C(=N1)n1c3c(c4ccccc41)CCCC23 (centres undefined) | > 100

tested on: SK-MEL-2 melanoma; assay: NCI anticancer screen, dose series, 48 h

Structure (SMILES) | TGI [µM]
C/C=C/[C@@H](C(=O)OC)N1C(=O)c2ccccc2[C@H]1O | > 100
COC(=O)C(Cc1ccc2c(c1)CCCC2)Cc1cc2c(cc1C(O)OC)CCC2 (centres undefined) | > 100
S=C1N=C2C(=N1)n1c3c(c4ccccc41)CCCC23 (centres undefined) | > 100

tested on: SK-MEL-28 melanoma; assay: NCI anticancer screen, dose series, 48 h

Structure (SMILES) | TGI [µM]
C/C=C/[C@@H](C(=O)OC)N1C(=O)c2ccccc2[C@H]1O | > 100
COC(=O)C(Cc1ccc2c(c1)CCCC2)Cc1cc2c(cc1C(O)OC)CCC2 (centres undefined) | > 100
S=C1N=C2C(=N1)n1c3c(c4ccccc41)CCCC23 (centres undefined) | > 100

tested on: SK-MEL-5 melanoma; assay: NCI anticancer screen, dose series, 48 h

Structure (SMILES) | TGI [µM]
C/C=C/[C@@H](C(=O)OC)N1C(=O)c2ccccc2[C@H]1O | > 100
COC(=O)C(Cc1ccc2c(c1)CCCC2)Cc1cc2c(cc1C(O)OC)CCC2 (centres undefined) | > 100
S=C1N=C2C(=N1)n1c3c(c4ccccc41)CCCC23 (centres undefined) | > 100

tested on: SK-OV-3 ovarian; assay: NCI anticancer screen, dose series, 48 h

Structure (SMILES) | TGI [µM]
C/C=C/[C@@H](C(=O)OC)N1C(=O)c2ccccc2[C@H]1O | > 100
COC(=O)C(Cc1ccc2c(c1)CCCC2)Cc1cc2c(cc1C(O)OC)CCC2 (centres undefined) | > 100
S=C1N=C2C(=N1)n1c3c(c4ccccc41)CCCC23 (centres undefined) | > 100

tested on: SN12C renal; assay: NCI anticancer screen, dose series, 48 h

Structure (SMILES) | TGI [µM]
C/C=C/[C@@H](C(=O)OC)N1C(=O)c2ccccc2[C@H]1O | > 100
COC(=O)C(Cc1ccc2c(c1)CCCC2)Cc1cc2c(cc1C(O)OC)CCC2 (centres undefined) | > 100
S=C1N=C2C(=N1)n1c3c(c4ccccc41)CCCC23 (centres undefined) | 72.6

tested on: SNB-19 CNS; assay: NCI anticancer screen, dose series, 48 h

Structure (SMILES) | TGI [µM]
C/C=C/[C@@H](C(=O)OC)N1C(=O)c2ccccc2[C@H]1O | > 100
COC(=O)C(Cc1ccc2c(c1)CCCC2)Cc1cc2c(cc1C(O)OC)CCC2 (centres undefined) | > 100
S=C1N=C2C(=N1)n1c3c(c4ccccc41)CCCC23 (centres undefined) | > 100

tested on: SNB-75 CNS; assay: NCI anticancer screen, dose series, 48 h

Structure (SMILES) | TGI [µM]
C/C=C/[C@@H](C(=O)OC)N1C(=O)c2ccccc2[C@H]1O | > 100
COC(=O)C(Cc1ccc2c(c1)CCCC2)Cc1cc2c(cc1C(O)OC)CCC2 (centres undefined) | > 100
S=C1N=C2C(=N1)n1c3c(c4ccccc41)CCCC23 (centres undefined) | > 100

tested on: SR leukemia; assay: NCI anticancer screen, dose series, 48 h

Structure (SMILES) | TGI [µM]
C/C=C/[C@@H](C(=O)OC)N1C(=O)c2ccccc2[C@H]1O | > 100
COC(=O)C(Cc1ccc2c(c1)CCCC2)Cc1cc2c(cc1C(O)OC)CCC2 (centres undefined) | > 100
S=C1N=C2C(=N1)n1c3c(c4ccccc41)CCCC23 (centres undefined) | > 100

tested on: SW-620 colon; assay: NCI anticancer screen, dose series, 48 h

Structure (SMILES) | TGI [µM]
C/C=C/[C@@H](C(=O)OC)N1C(=O)c2ccccc2[C@H]1O | > 100
COC(=O)C(Cc1ccc2c(c1)CCCC2)Cc1cc2c(cc1C(O)OC)CCC2 (centres undefined) | > 100
S=C1N=C2C(=N1)n1c3c(c4ccccc41)CCCC23 (centres undefined) | > 100

tested on: T-47D breast; assay: NCI anticancer screen, dose series, 48 h

Structure (SMILES) | TGI [µM]
C/C=C/[C@@H](C(=O)OC)N1C(=O)c2ccccc2[C@H]1O | > 100
COC(=O)C(Cc1ccc2c(c1)CCCC2)Cc1cc2c(cc1C(O)OC)CCC2 (centres undefined) | > 100
S=C1N=C2C(=N1)n1c3c(c4ccccc41)CCCC23 (centres undefined) | > 100

tested on: TK-10 renal; assay: NCI anticancer screen, dose series, 48 h

Structure (SMILES) | TGI [µM]
C/C=C/[C@@H](C(=O)OC)N1C(=O)c2ccccc2[C@H]1O | > 100
COC(=O)C(Cc1ccc2c(c1)CCCC2)Cc1cc2c(cc1C(O)OC)CCC2 (centres undefined) | > 100
S=C1N=C2C(=N1)n1c3c(c4ccccc41)CCCC23 (centres undefined) | > 100

tested on: U251 CNS; assay: NCI anticancer screen, dose series, 48 h

Structure (SMILES) | TGI [µM]
C/C=C/[C@@H](C(=O)OC)N1C(=O)c2ccccc2[C@H]1O | > 100
COC(=O)C(Cc1ccc2c(c1)CCCC2)Cc1cc2c(cc1C(O)OC)CCC2 (centres undefined) | > 100
S=C1N=C2C(=N1)n1c3c(c4ccccc41)CCCC23 (centres undefined) | > 100

tested on: UACC-257 melanoma; assay: NCI anticancer screen, dose series, 48 h

Structure (SMILES) | TGI [µM]
C/C=C/[C@@H](C(=O)OC)N1C(=O)c2ccccc2[C@H]1O | > 100
COC(=O)C(Cc1ccc2c(c1)CCCC2)Cc1cc2c(cc1C(O)OC)CCC2 (centres undefined) | 90.4
S=C1N=C2C(=N1)n1c3c(c4ccccc41)CCCC23 (centres undefined) | > 100

tested on: UACC-62 melanoma; assay: NCI anticancer screen, dose series, 48 h

Structure (SMILES) | TGI [µM]
C/C=C/[C@@H](C(=O)OC)N1C(=O)c2ccccc2[C@H]1O | > 100
COC(=O)C(Cc1ccc2c(c1)CCCC2)Cc1cc2c(cc1C(O)OC)CCC2 (centres undefined) | > 100
S=C1N=C2C(=N1)n1c3c(c4ccccc41)CCCC23 (centres undefined) | > 100

tested on: UO-31 renal; assay: NCI anticancer screen, dose series, 48 h

Structure (SMILES) | TGI [µM]
C/C=C/[C@@H](C(=O)OC)N1C(=O)c2ccccc2[C@H]1O | > 100
COC(=O)C(Cc1ccc2c(c1)CCCC2)Cc1cc2c(cc1C(O)OC)CCC2 (centres undefined) | > 100
S=C1N=C2C(=N1)n1c3c(c4ccccc41)CCCC23 (centres undefined) | > 100
